Laboratory results published in patent US12180187B2, “1-phenyl-5-azinylpyrazolyl-3-oxyalkyl acids and their use for controlling unwanted plant growth” (BAYER AKTIENGESELLSCHAFT, priority 2019, dated 2024).

How the values were obtained:
STEME = assay: Pre-emergence action against STEME, 1280 g/ha; type: in vivo, Stellaria media; conditions: scored visually after about 3 weeks vs untreated controls (100% = plants have died); for pest or weed control at 1280 g/ha: Stellaria media, 504 h
In short: (§1)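 Pre-emergence pot test: seeds in sandy loam, soil-covered, sprayed on soil surface (WP/EC, 0.5% additive, 600 L/ha water); greenhouse ~3 wk; visual % effect vs untreated, 0–100%.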

POAAN [1] = assay: Pre-emergence action against POAAN, 1280 g/ha; type: in vivo, Poa annua; conditions: visual scoring after about 3 weeks vs untreated controls, 100% = plants have died, 0% = like control plants; for pest or weed control at 1280 g/ha: Poa annua, 504 h
In short: as §1

AMARE [2] = assay: Pre-emergence action against AMARE, 1280 g/ha; type: in vivo, Amaranthus retroflexus; conditions: scored visually after about 3 weeks vs untreated controls (100% = plants have died); for pest or weed control at 1280 g/ha: Amaranthus retroflexus, 504 h
In short: as §1

SETVI [3] = assay: Post-emergence action at 320 g/ha against SETVI; type: in vivo, Setaria viridis; conditions: visual rating about 3 weeks after treatment vs untreated controls
In short: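 Herbicidal effect is scored by eye about 3 weeks after a foliar spray and expressed as percent activity, with untreated plants as 0% and dead plants as 100%. Treatment is applied at the one-leaf stage of greenhouse-grown, soil-sown plants, at a water rate of 600 l/ha containing 0.5% additive.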

DIGSA = assay: Pre-emergence action at 320 g/ha against DIGSA; type: in vivo, Digitaria sanguinalis; conditions: visual scoring after about 3 weeks vs untreated controls; for pest or weed control at 320 g/ha: Digitaria sanguinalis, 504 h
In short: (§2)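 WP/EC formulations applied pre-emergence to covering soil, water rate 600 l/ha, 0.5% additive. Greenhouse, ~3 weeks. Visual % damage vs untreated (0–100%).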

MATIN = assay: Pre-emergence action against MATIN, 1280 g/ha; type: in vivo, Tripleurospermum inodorum (Matricaria inodora); conditions: scored visually after about 3 weeks vs untreated controls (100% = plants have died); for pest or weed control at 1280 g/ha: Tripleurospermum inodorum, 504 h
In short: as §1

ALOMY = assay: Pre-emergence action at 320 g/ha against ALOMY; type: in vivo, Alopecurus myosuroides; conditions: scored visually after about 3 weeks vs untreated controls (100% = plants have died); for pest or weed control at 320 g/ha: Alopecurus myosuroides, 504 h
In short: as §2

AMARE [4] = assay: Pre-emergence action at 320 g/ha against AMARE; type: in vivo, Amaranthus retroflexus; conditions: visual scoring after about 3 weeks vs untreated controls; for pest or weed control at 320 g/ha: Amaranthus retroflexus, 504 h
In short: as §2

ECHCG = assay: Pre-emergence action against ECHCG, 1280 g/ha; type: in vivo, Echinochloa crus-galli; conditions: visual scoring after about 3 weeks vs untreated controls, 100% = plants have died, 0% = like control plants; for pest or weed control at 1280 g/ha: Echinochloa crus-galli, 504 h
In short: as §1

POLCO = assay: Pre-emergence action at 320 g/ha against POLCO; type: in vivo, Fallopia convolvulus (Polygonum convolvulus); conditions: visual scoring after about 3 weeks vs untreated controls; for pest or weed control at 320 g/ha: Fallopia convolvulus, 504 h
In short: as §2

POAAN [5] = assay: Post-emergence action against POAAN, 1.28 kg/ha; type: in vivo, Poa annua; conditions: dosage 1280 g/ha, visual rating about 3 weeks after treatment vs untreated controls; for pest or weed control at 1280 g/ha: Poa annua, 504 h
In short: (§3)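 Post-emergence greenhouse spray, one-leaf stage (2–3 wk after sowing), sandy loam. WP/EC, aqueous + 0.5% additive, 600 L/ha water. Visual % activity vs untreated, ~3 wk after treatment; 100% = plants dead.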

SETVI [6] = assay: Pre-emergence action at 320 g/ha against SETVI; type: in vivo, Setaria viridis; conditions: visual scoring after about 3 weeks vs untreated controls; for pest or weed control at 320 g/ha: Setaria viridis, 504 h
In short: as §2

SETVI [7] = assay: Pre-emergence action against SETVI, 1280 g/ha; type: in vivo, Setaria viridis; conditions: visual scoring after about 3 weeks vs untreated controls, 100% = plants have died, 0% = like control plants; for pest or weed control at 1280 g/ha: Setaria viridis, 504 h
In short: as §1

ABUTH = assay: Post-emergence action against ABUTH, 1.28 kg/ha; type: in vivo, Abutilon theophrasti; conditions: dosage 1280 g/ha, visual rating about 3 weeks after treatment vs untreated controls (100% = plants died)
In short: as §3

Structure (SMILES) | pest or weed control at 1280 g/ha (STEME) | pest or weed control at 1280 g/ha (POAAN [1]) | pest or weed control at 1280 g/ha (AMARE [2]) | pest or weed control at 320 g/ha (DIGSA) | pest or weed control at 1280 g/ha (MATIN) | pest or weed control at 320 g/ha (ALOMY) | pest or weed control at 320 g/ha (AMARE [4]) | pest or weed control at 1280 g/ha (ECHCG) | Pre-emergence action against STEME (STEME) | Pre-emergence action against POAAN (POAAN [1]) | Pre-emergence action against AMARE (AMARE [2]) | Pre-emergence action against DIGSA in % (DIGSA) | Pre-emergence action against MATIN (MATIN) | Pre-emergence action at 320 g/ha against ALOMY in % (ALOMY) | Pre-emergence action against AMARE in % (AMARE [4]) | Pre-emergence action against ECHCG (ECHCG) | Pre-emergence action against POLCO in % (POLCO) | Post-emergence action against POAAN (POAAN [5]) | Pre-emergence action against SETVI in % (SETVI [6]) | Pre-emergence action against SETVI (SETVI [7]) | other results
C=CCNC(=O)COc1nn(-c2ccccc2F)c(-c2ccc(F)nc2)c1Br [Example X-001, N-Allyl-2-{[4-bromo-1-(2-fluorophenyl)-5-(6-fluoropyridin-3-yl)-1H-pyrazol-3-yl]oxy}acetamide] | 100% | 100% | 100% | 100% | 90% | 100% | 90% | 100% | – | – | – | – | – | – | – | – | – | – | – | – | Post-emergence action against SETVI in % (SETVI [3]): 90%; pest or weed control at 320 g/ha (POLCO): 90%; pest or weed control at 1280 g/ha (POAAN [5]): 100%; pest or weed control at 320 g/ha (SETVI [6]): 100%; pest or weed control at 1280 g/ha (SETVI [7]): 100%
O=C(O)COc1nn(-c2ccccc2F)c(-c2cncnc2)c1Br [VI-007, {[4-Bromo-1-(2-fluorophenyl)-5-(pyrimidin-5-yl)-1H-pyrazol-3-yl]oxy}acetic Acid] | 100% | 100% | 100% | 100% | 100% | 80% | 100% | 100% | – | – | – | – | – | – | – | – | – | – | – | – | pest or weed control at 320 g/ha (POLCO): 100%; pest or weed control at 1280 g/ha (POAAN [5]): 100%; pest or weed control at 320 g/ha (SETVI [6]): 100%; pest or weed control at 1280 g/ha (SETVI [7]): 100%
O=C(O)COc1nn(-c2ccccc2F)c(-c2ccc(F)nc2)c1Br [VII-003, {[4-Bromo-1-(2-fluorophenyl)-5-(6-fluoropyridin-3-yl)-1H-pyrazol-3-yl]oxy}acetic acid] | 100% | 100% | 100% | 100% | 100% | 100% | 100% | 100% | – | – | – | – | – | – | – | – | – | – | – | – | pest or weed control at 320 g/ha (POLCO): 90%; pest or weed control at 1280 g/ha (POAAN [5]): 100%; pest or weed control at 320 g/ha (SETVI [6]): 100%; pest or weed control at 1280 g/ha (SETVI [7]): 100%
COC(=O)C(C)Oc1nn(-c2ccccc2)c(-c2ccc(F)nc2)c1Cl (stereo not drawn) [VII-023, Methyl 2-{[4-chloro-5-(6-fluoropyridin-3-yl)-1-phenyl-1H-pyrazol-3-yl]oxy}propanoate] | 100% | 100% | 100% | 100% | 90% | 100% | 100% | 100% | – | – | – | – | – | – | – | – | – | – | – | – | pest or weed control at 320 g/ha (POLCO): 100%; pest or weed control at 1280 g/ha (POAAN [5]): 100%; pest or weed control at 320 g/ha (SETVI [6]): 100%; pest or weed control at 1280 g/ha (SETVI [7]): 100%
CCC(Oc1nn(-c2ccccc2F)c(-c2ccc(F)nc2)c1Br)C(=O)OC (stereo not drawn) [VII-029] | – | – | – | – | – | – | – | – | 100% | 100% | 100% | 100% | 100% | 90% | 100% | 100% | 100% | 100% | 90% | 100% | –
COCCOC(=O)COc1nn(-c2ccccc2F)c(-c2ccc(F)nc2)c1Br [VII-052] | – | – | – | – | – | – | – | – | 100% | 100% | 100% | 100% | 100% | 100% | 100% | 100% | 100% | 100% | 100% | 100% | Post-emergence action against ABUTH (ABUTH): 90%
COC(=O)[C@@H](C)Oc1nn(-c2cc(F)ccc2F)c(-c2ccc(F)nc2)c1Br [VII-062] | – | – | – | – | – | – | – | – | 100% | 100% | 100% | 100% | 100% | 100% | 100% | 100% | 100% | 100% | 100% | 100% | –
CCOC(=O)C(C)Oc1nn(-c2ccccc2F)c(-c2ccc(F)nc2)c1C(F)(F)F (stereo not drawn) [VII-066] | – | – | – | – | – | – | – | – | 100% | 100% | 100% | 100% | 90% | 100% | 100% | 100% | 90% | 100% | 80% | 100% | Post-emergence action against ABUTH (ABUTH): 90%
COC(=O)COc1nn(-c2cc(F)ccc2F)c(-c2ccc(F)nc2)c1Br [VII-089] | – | – | – | – | – | – | – | – | 90% | 100% | 100% | 100% | 100% | 100% | 100% | 100% | 100% | 100% | 100% | 100% | Post-emergence action against ABUTH (ABUTH): 90%
COC(=O)[C@@H](C)Oc1nn(-c2cc(F)ccc2F)c(-c2cncc(F)c2)c1Br [VII-132] | – | – | – | – | – | – | – | – | 100% | 100% | 100% | 100% | 100% | 100% | 100% | 100% | 100% | 100% | 100% | 100% | Post-emergence action against ABUTH (ABUTH): 90%
CCOC(=O)COc1nn(-c2ccccc2F)c(-c2ccnc(F)c2)c1Br [VIII-003, Ethyl {[4-bromo-1-(2-fluorophenyl)-5-(2-fluoropyridin-4-yl)-1H-pyrazol-3-yl]oxy}acetate] | 100% | 100% | 100% | 100% | 100% | 100% | 90% | 100% | – | – | – | – | – | – | – | – | – | – | – | – | Post-emergence action against ABUTH (ABUTH): 90%; pest or weed control at 320 g/ha (POLCO): 100%; pest or weed control at 1280 g/ha (POAAN [5]): 100%; pest or weed control at 320 g/ha (SETVI [6]): 100%; pest or weed control at 1280 g/ha (SETVI [7]): 100%
